Results as given in US4725601A, “Certain imidazo[1,2-a]pyridines useful in the treatment of ulcers” (Fujisawa Pharmaceutical Co., Ltd., priority 1985, dated 1988).

Experiments:
[1] = system: ethanol ulcer; test: Inhibition on ethanol ulcer; type: in vivo, male Spraque-Dawley rats; details: rat, oral, 30 minutes before absolute ethanol; for Inhibition %: 32 mg/kg, ulcer area vs control
Procedure: (A) Inhibition on ethanol ulcer
Five male Spraque-Dawley rats, aged 7 weeks and weighing about 200 g, were used per group for the study on ethanol ulcer after the fast for 24 hours.
Test compound was suspended in 0.1% methylcellulose aqueous solution, and the suspension (5 ml/kg) was orally given to each rat.
The control group was given a vehicle, i.e. 0.1% methylcellulose aqueous solution (5 ml/kg), alone in the same way.
Absolute ethanol (5 ml/kg) was orally administered 30 minutes after dosing with test compound, and one hour later, the rats were sacrificed and their stomachs were removed. The area of ulcers of each rat was measured. The mean area […] in the medicated group was compared with that in the control group.

[2] = system: stress ulcer; test: Inhibition on stress ulcer; type: in vivo, Sprague-Dawley rats; details: stress ulcer (immobilization, water bath 22° C., seven hours), rat, oral; for Inhibition %: 32 mg/kg, ulcer area vs control
Procedure: (B) Inhibition on stress ulcer
Five Sprague-Dawley rats weighing about 200 g were used per group. Each animal was immobilized in a small cage and put in a water bath allowing to respire. The temperature of the water bath kept at 22° C. The test compound was administered orally just before the immobilization. Seven hours later, the animals were sacrificed and their stomachs were removed. The stomach was then fixed with 2% formalin. The area of ulcers was measured for each animal. The mean area (mm^2) in the medicated animals was compared with that in the control animals.

SMILES | Inhibition % [1] [%] | ED50 [1] [mg/kg] | ED50 ([2]; 7 h) [mg/kg] | Inhibition % [2] [%]
C#CCOCc1c(C)nc2c(OCc3ccccc3C)cccn12 [Test Compound (1), 8-(2-Methylbenzyloxy)-3-(2-propynyloxymethyl)-2-methylimidazo[1,2-a]pyridine] | 94.4 | 1.1 | 0.15 | 100
C#CCOCc1c(C)nc2c(OCc3ccccc3Cl)cccn12 [Test Compound (2), 8-(2-Chlorobenzyloxy)-3-(2-propynyloxymethyl)-2-methylimidazo[1,2-a]pyridine] | 98.2 | – | – | 100
C#CCc1c(C)nc2c(OCc3ccccc3C)cccn12 [Test Compound (3), 8-(2-Methylbenzyloxy)-3-(2-propynyl)-2-methylimidazo[1,2-a]pyridine] | 91.8 | – | – | 100
